The values that follow come from patent publication US20240059729A1, “MULTIFUNCTIONAL CYCLIC DINUCLEOTIDE AND USE THEREOF” (TYLIGAND BIOSCIENCE (SHANGHAI) LIMITED, priority 2020, published 2024).

By IC50 is commonly meant the concentration that inhibits the measured activity by half. A higher IC50 goes with weaker potency.

Molecules are shown by their SMILES. Where a name gives a salt, the structure may show the parent alone.

The subject of the assay is CT26 cells. The assay can be described thus: Inhibition of proliferation of CT26 cells (CellTiter-Glo). It counts as cell-based, mouse. The following applies: Mus musculus, 120 hours, CellTiter-Glo. On the procedure:
CT26 cell is a mouse colorectal cancer cell line. This assay used the CellTiter-Glo Luminescence Cell Vitality Assay kit from Promega to evaluate the inhibitory activity of the compounds on the proliferation of CT26 cells.
In thawing the CT26 cells (ATCC #CRL-2638), a cell freezing tube was quickly shaken in a water bath at 37° C. to thaw the cells within 1 min. The thawed cell suspension was taken and evenly mixed with DMEM medium (GE, Cat #SH30243.01) containing 10% FBS (GIBCO, Cat #10099-141), centrifuged for 5 min at 1000 rpm, and the supernatant was discarded. The cell pellet was resuspended in 5 mL of the complete medium (DMEM medium containing 10% FBS), placed into a cell culture flask with a bottom area of 25 cm^2, and incubated in a cell incubator at 37° C., 5% CO2 and 95% humidity. When the cell confluence reached 70%˜80%, the cells were passaged. All the cells in the culture flask were transferred to a 15 mL centrifuge tube, centrifuged for 5 min at 1000 rpm, and the supernatant was discarded. 5 mL of fresh complete medium was added to re-suspend the cell pellet, 1 mL of which was taken to place in a cell culture flask with a bottom area of 25 cm^2, supplemented with 4 mL of fresh complete medium for further incubation. When the cell confluence reached 70%-80% again, plating was conducted following the procedure of cell passage, retaining 1/5 cell suspension for further inculation and remaining 4/5 of the cell suspension in a 15 mL centrifuge tube.
The cell suspension was centrifuged to discard the old culture medium, washed once using DMEM medium (serum-free), and centrifuged to remove the supernatant. The cells were then re-suspended in DMEM medium (serum-free). Cell viability was then detected by Trypan blue exclusion test and to be used for plating when the cell viability was confirmed to be more than 95%. A cell suspension with a density of 1.1×10^4 viable cells/mL was prepared using DMEM medium (serum-free), and 90 μL of the cell suspension was added to a 96-well 96-well transparent flat-bottomed black-walled cell culture plate (Corning, Cat #3603) so that the cell density in the plate was 1000 viable cells/well. A control group containing no cells, no compound, and complete medium only (i.e., a culture medium control), and a control group containing no compound but cells (i.e., a cell control) were set. The cell plates were placed in a cell incubator overnight.
A 10 mM stock solution of the compounds in DMSO was first serially diluted at 3.16-fold with DMSO (Sigma, Cat #D2650) to the 9th concentration, and the 10th concentration was set as DMSO control (compound-free). Then, the DMSO solutions containing different concentrations of the compounds were diluted at 10-fold with PBS (Solarbio, Cat #P1020) so that the DMSO content in each compound solution of various concentrations was 10%. Finally, 10 μL of each of such solutions was added into corresponding cell culture plate to provide an initial compound concentration of 100 μM, with the dilution fold of adjacent concentrations being 3.16 and the DMSO content in the cell culture plate being 1%. The cell plate was placed in a cell incubator for further 120 hours.
After 120 hours, the CellTiter-Glo reagent (Promega, Cat #G7572) was thawed and the plates were equilibrated at room temperature for 30 min. 100 uL of CellTiter-Glo was added to each well of the plate, and the cells were lysed thoroughly by shaking on an orbital shaker for 5 min. The plates were placed at room temperature for 20 min to stabilize the luminescence signal, and the luminescence value of each well was scanned at full wavelength with a multifunctional microplate reader (Molecular Devices, Spectramax M3). […]
Take `Nc1nc(Cl)nc2c1ncn2[C@H]1CC2O[P@](=O)(S)OC[C@H]3O[C@@H](n4cnc5c(N)nc(Cl)nc54)CC3O[P@](=O)(S)OC[C@H]2O1` (stereo partly drawn) [Example 2, (3′,3′)-cyclo-(Rp,Rp)-bis-[3′-O-phosphorothioate-diester-2-chloro-2′-deoxyadenosine]]: the 50% inhibitory concentration (IC50) is 1000 to 10000 nM.

As for `Nc1ncnc2c1ncn2[C@@H]1O[C@@H]2CO[P@@](=O)(S)OC3C(F)[C@H](n4cnc5c(N)nc(Cl)nc54)O[C@@H]3CO[P@@](=O)(S)OC2C1O` (stereo partly drawn) [Example 7, (3′,3′)-cyclo-(Rp,Rp)-[3′-O-phosphorothioate-diester-adenosine]-[3′-O-phosphorothioate-diester-2-chloro-2′-deoxy-2′-fluoro-beta-adenosine] diammonium salt], the IC50 is 1000 to 10000 nM.

The molecule `Nc1nc(Cl)nc2c1ncn2[C@H]1C[C@H](O)[C@@H](CO)O1` [Cladribine, cladribine, reference compound] came in with an IC50 of less than 1000 nM.

The molecule `Nc1ccn([C@@H]2O[C@H](CO)[C@@H](O)C2(F)F)c(=O)n1` [Gemcitabine, gemcitabine, reference compound] yielded an IC50 of less than 1000 nM.

`Nc1nc(Cl)nc2c1ncn2[C@@H]1O[C@@H]2CO[P@@](=O)(S)OC3[C@@H](F)[C@H](n4cnc5c(N)nc(Cl)nc54)O[C@@H]3CO[P@@](=O)(S)O[C@@H]2C1F` (stereo partly drawn) [Example 1, (3′,3′)-cyclo-(Rp,Rp)-bis-[3′-O-phosphorothioate-diester-2-chloro-2′-deoxy-2′-fluoro-beta-adenosine]1.5-ammonium-0.5-1,8-diazabicycloundec-7-ene-salt] yielded an IC50 of 1000 to 10000 nM.

The molecule `Nc1nc(Cl)nc2c1ncn2[C@@H]1O[C@H](CO)[C@@H](O)[C@@H]1F` [Clofarabine—, clofarabine, reference compound] showed an IC50 of less than 1000 nM.
